Legend:
DU-145 = assay: NCI anticancer screen, DU-145; type: cell-based, human; settings: DU-145, Prostate, 48 h
MDA-MB-435 = assay: NCI anticancer screen, MDA-MB-435; type: cell-based, human; settings: MDA-MB-435, Breast, 48 h
TK-10 = assay: NCI anticancer screen, TK-10; type: cell-based, human; settings: TK-10, Renal, 48 h
NCI-H322M = assay: NCI anticancer screen, NCI-H322M; type: cell-based, human; settings: Non-Small Cell Lung, 48 h
SK-MEL-5 = assay: NCI anticancer screen, SK-MEL-5; type: cell-based, human; settings: SK-MEL-5, Melanoma, 48 h
SNB-75 = assay: NCI anticancer screen, SNB-75; type: cell-based, human; settings: SNB-75, CNS, 48 h
MCF7 = assay: NCI anticancer screen, MCF7; type: cell-based, human; settings: MCF7, Breast, 48 h
NCI-H460 = assay: NCI anticancer screen, NCI-H460; type: cell-based, human; settings: NCI-H460, Non-Small Cell Lung, 48 h
MOLT-4 = assay: NCI anticancer screen, MOLT-4; type: cell-based, human; settings: MOLT-4, Leukemia, 48 h
SN12C = assay: NCI anticancer screen, SN12C; type: cell-based, human; settings: Renal, 48 h
OVCAR-3 = assay: NCI anticancer screen, OVCAR-3; type: cell-based, human; settings: OVCAR-3, Ovarian, 48 h
T-47D = assay: NCI anticancer screen, T-47D; type: cell-based, human; settings: Breast, 48 h
CAKI-1 = assay: NCI anticancer screen, CAKI-1; type: cell-based, human; settings: CAKI-1, Renal, 48 h
NCI/ADR-RES = assay: NCI anticancer screen, NCI/ADR-RES; type: cell-based, human; settings: Breast, 48 h
U251 = assay: NCI anticancer screen, U251; type: cell-based, human; settings: U251, CNS, 48 h
OVCAR-5 = assay: NCI anticancer screen, OVCAR-5; type: cell-based, human; settings: OVCAR-5, Ovarian, 48 h
SF-295 = assay: NCI anticancer screen, SF-295; type: cell-based, human; settings: SF-295, CNS, 48 h
HCT-116 = assay: NCI anticancer screen, HCT-116; type: cell-based, human; settings: HCT-116, Colon, 48 h
KM12 = assay: NCI anticancer screen, KM12; type: cell-based, human; settings: KM12, Colon, 48 h
OVCAR-8 = assay: NCI anticancer screen, OVCAR-8; type: cell-based, human; settings: OVCAR-8, Ovarian, 48 h
NCI-H226 = assay: NCI anticancer screen, NCI-H226; type: cell-based, human; settings: NCI-H226, Non-Small Cell Lung, 48 h
EKVX = assay: NCI anticancer screen, EKVX; type: cell-based, human; settings: Non-Small Cell Lung, 48 h
[1] = test system: 60 different human cancer cell lines; assay: NCI in vitro anticancer screen (whole panel); type: cell-based; settings: for growth and proliferation of human primary cancer cell-lines (in words): NCI screen, 48 h
MALME-3M = assay: NCI anticancer screen, MALME-3M; type: cell-based, human; settings: Melanoma, 48 h
NCI-H23 = assay: NCI anticancer screen, NCI-H23; type: cell-based, human; settings: NCI-H23, Non-Small Cell Lung, 48 h
MDA-MB-231/ATCC = assay: NCI anticancer screen, MDA-MB-231/ATCC; type: cell-based, human; settings: Breast, 48 h
A498 = assay: NCI anticancer screen, A498; type: cell-based, human; settings: A498, Renal, 48 h
SW-620 = assay: NCI anticancer screen, SW-620; type: cell-based, human; settings: SW-620, Colon, 48 h
K-562 = assay: NCI anticancer screen, K-562; type: cell-based, human; settings: K-562, Leukemia, 48 h
PC-3 = assay: NCI anticancer screen, PC-3; type: cell-based, human; settings: PC-3, Prostate, 48 h
NCI-H522 = assay: NCI anticancer screen, NCI-H522; type: cell-based, human; settings: Homo sapiens; NCI-H522, Non-Small Cell Lung, 48 h
IGR-OV1 = assay: NCI anticancer screen, IGR-OV1; type: cell-based, human; settings: Homo sapiens, IGROV-1; IGR-OV1, Ovarian, 48 h
SK-MEL-2 = assay: NCI anticancer screen, SK-MEL-2; type: cell-based, human; settings: Homo sapiens; SK-MEL-2, Melanoma, 48 h
UO-31 = assay: NCI anticancer screen, UO-31; type: cell-based, human; settings: Homo sapiens; UO-31, Renal, 48 h
[2] = Homo sapiens, read-out: LC50 (the source's name)

For `COc1cc(CNCC2CCN(C(=O)OC(C)(C)C)CC2)cc(CN2CCN(c3ccccn3)CC2)c1O` [Compound Q012132, 2-Methoxy-4-({[(N-t-butyloxycarbonylpiperidin-4-yl)methyl]amino}methyl)-6-[(4-pyridin-2-ylpiperazin-1-yl)methyl]phenol], the TGI (DU-145) was >100 µM, the GI50 (DU-145; Homo sapiens) was 38.8 µM and the CC50 (DU-145; [2]) was > 100 µM. For the same compound, the GI50 (MDA-MB-435; Homo sapiens) was 18.2 µM, the CC50 (MDA-MB-435; [2]) was 73.1 µM and the TGI (MDA-MB-435) was 36.4 µM. The GI50 (TK-10; Homo sapiens) was 19.5 µM, the CC50 (TK-10; [2]) was 86.5 µM and the TGI (TK-10) was 41.0 µM. For the same compound, the GI50 (NCI-H322M; Homo sapiens) was 37.8 µM, the CC50 (NCI-H322M; [2]) was > 100 µM and the TGI (NCI-H322M) was >100 µM. For the same compound, the GI50 (SK-MEL-5; Homo sapiens) was 13.1 µM, the CC50 (SK-MEL-5; [2]) was 51.5 µM and the TGI (SK-MEL-5) was 26.0 µM. The GI50 (SNB-75; Homo sapiens) was 22.3 µM, the LC50 (concentration killing 50% of cells) (SNB-75; Homo sapiens) was > 100 µM and the TGI (SNB-75) was 49.8 µM. For the same compound, the GI50 (MCF7; Homo sapiens) was 18.6 µM, the CC50 (MCF7; [2]) was 73 µM and the TGI (MCF7) was 36.9 µM. The GI50 (NCI-H460; Homo sapiens) was 21.3 µM, the CC50 (NCI-H460; [2]) was 81.7 µM and the TGI (NCI-H460) was 41.7 µM. For the same compound, the GI50 (MOLT-4; Homo sapiens) was 13 µM, the CC50 (MOLT-4; [2]) was > 100 µM and the TGI (MOLT-4) was 42.4 µM. For the same compound, the CC50 (SN12C; [2]) was > 100 µM, the TGI (SN12C) was >100 µM and the GI50 (OVCAR-3; Homo sapiens) was 33.1 µM. The CC50 (OVCAR-3; [2]) was > 100 µM, the TGI (OVCAR-3) was >100 µM and the TGI (T-47D) was 44.4 µM. For the same compound, the GI50 (T-47D; Homo sapiens, T47D) was 16.2 µM, the CC50 (T-47D; Homo sapiens, T47D, read-out: LC50 (the source's name)) was > 100 µM and the TGI (CAKI-1) was 51.7 µM. For the same compound, the GI50 (CAKI-1; Homo sapiens) was 22.8 µM, the CC50 (CAKI-1; [2]) was > 100 µM and the TGI (NCI/ADR-RES) was 79.2 µM. For the same compound, the GI50 (NCI/ADR-RES; Homo sapiens) was 21.4 µM, the CC50 (NCI/ADR-RES; [2]) was > 100 µM and the GI50 (U251; Homo sapiens, U-251) was 15.1 µM. For the same compound, the CC50 (U251; Homo sapiens, U-251, read-out: LC50 (the source's name)) was 55.8 µM, the TGI (U251) was 29.1 µM and the GI50 (OVCAR-5; Homo sapiens) was 29.3 µM. For the same compound, the CC50 (OVCAR-5; [2]) was > 100 µM, the TGI (OVCAR-5) was >100 µM and the GI50 (SF-295; Homo sapiens) was 19.3 µM. For the same compound, the CC50 (SF-295; [2]) was 89 µM, the TGI (SF-295) was 41.4 µM and the TGI (HCT-116) was 22.6 µM. It also gave a GI50 (HCT-116; Homo sapiens) of 10.8 µM, an LC50 (50% lethal concentration) (HCT-116; Homo sapiens) of 47.6 µM and a GI50 (KM12; Homo sapiens) of 31.6 µM. The CC50 (KM12; [2]) was > 100 µM, the TGI (KM12) was >100 µM and the GI50 (OVCAR-8; Homo sapiens) was 22.3 µM. For the same compound, the CC50 (OVCAR-8; [2]) was > 100 µM, the TGI (OVCAR-8) was 61.8 µM and the GI50 (NCI-H226; Homo sapiens) was 65.5 µM. For the same compound, the LC50 (concentration giving 50% net cell kill) (NCI-H226; Homo sapiens) was > 100 µM, the TGI (NCI-H226) was >100 µM and the GI50 (EKVX; Homo sapiens) was 91.2 µM. For the same compound, the CC50 (EKVX; [2]) was > 100 µM, the TGI (EKVX) was >100 µM and the “growth and proliferation of human primary cancer cell-lines (in words)” value [1] was “inhibited growth and proliferation”. For the same compound, the “cytostatic / cytotoxic effects on human cancer cell-lines (in words)” value ([1]; low micromolar concentrations, leukemia, melanoma, colon and central nervous system cell-lines) was “cytostatic and cytotoxic effects”, the GI50 (MALME-3M; Homo sapiens) was 15.7 µM and the CC50 (MALME-3M; [2]) was 65.5 µM. For the same compound, the TGI (MALME-3M) was 32.0 µM, the GI50 (NCI-H23; Homo sapiens) was 29.6 µM and the CC50 (NCI-H23; [2]) was > 100 µM. The TGI (NCI-H23) was >100 µM, the TGI (MDA-MB-231/ATCC) was 41.0 µM and the GI50 (MDA-MB-231/ATCC; Homo sapiens) was 17.8 µM. It also gave a CC50 (MDA-MB-231/ATCC; [2]) of 94.3 µM, a TGI (A498) of 36.3 µM and a GI50 (A498; Homo sapiens) of 17.8 µM. The CC50 (A498; [2]) was 74.1 µM, the GI50 (SW-620; Homo sapiens) was 16.1 µM and the CC50 (SW-620; [2]) was 59.1 µM. The TGI (SW-620) was 30.8 µM, the GI50 (K-562; Homo sapiens, K562) was 5.21 µM and the CC50 (K-562; Homo sapiens, K562, read-out: LC50 (the source's name)) was 73.5 µM. For the same compound, the TGI (K-562) was 19.6 µM, the GI50 (PC-3; Homo sapiens) was 21.8 µM and the CC50 (PC-3; [2]) was > 100 µM. For the same compound, the TGI (PC-3) was 81.1 µM.

In the case of `CC(C)(C)OC(=O)Nc1ccc(O)c(C(=O)NCCOC(=O)NCCNC(=O)c2cc(OCc3ccccc3)ccc2OCc2ccccc2)c1` [Compound Q012052, 2-[5-(BOC-amino)-2-hydroxybenzoylamino]ethyl 2-[2,5-bis-(benzyl-oxy)benzoylamino]ethylcarbamate], the GI50 (DU-145; Homo sapiens) is reported as > 100 µM, the GI50 (NCI-H522) is reported as 49.7 µM and the GI50 (MDA-MB-435; Homo sapiens) is reported as > 100 µM. For the same compound, the GI50 (TK-10; Homo sapiens) was > 100 µM, the GI50 (NCI-H322M; Homo sapiens) was > 100 µM and the GI50 (SK-MEL-5; Homo sapiens) was > 100 µM. For the same compound, the GI50 (SNB-75; Homo sapiens) was 68.9 µM, the GI50 (IGR-OV1) was 25.3 µM and the GI50 (MCF7; Homo sapiens) was 17.1 µM. The GI50 (SK-MEL-2) was > 100 µM, the GI50 (NCI-H460; Homo sapiens) was > 100 µM and the GI50 (MOLT-4; Homo sapiens) was 4.05 µM. The GI50 (SN12C; Homo sapiens) was > 100 µM, the GI50 (OVCAR-3; Homo sapiens) was > 100 µM and the GI50 (T-47D; Homo sapiens, T47D) was 5.05 µM. The GI50 (CAKI-1; Homo sapiens) was 98 µM, the GI50 (NCI/ADR-RES; Homo sapiens) was > 100 µM and the GI50 (U251; Homo sapiens, U-251) was > 100 µM. For the same compound, the GI50 (OVCAR-5; Homo sapiens) was > 100 µM, the GI50 (SF-295; Homo sapiens) was 21.9 µM and the GI50 (HCT-116; Homo sapiens) was > 100 µM. For the same compound, the GI50 (KM12; Homo sapiens) was > 100 µM, the GI50 (OVCAR-8; Homo sapiens) was > 100 µM and the GI50 (NCI-H226; Homo sapiens) was > 100 µM. The GI50 (EKVX; Homo sapiens) was 35.1 µM, the “growth and proliferation of human primary cancer cell-lines (in words)” value [1] was “inhibited growth and proliferation” and the GI50 (MALME-3M; Homo sapiens) was > 100 µM. The GI50 (UO-31) was 19.9 µM, the GI50 (NCI-H23; Homo sapiens) was > 100 µM and the GI50 (MDA-MB-231/ATCC; Homo sapiens) was > 100 µM. The GI50 (A498; Homo sapiens) was > 100 µM, the GI50 (SW-620; Homo sapiens) was > 100 µM and the GI50 (K-562; Homo sapiens, K562) was 14 µM. The GI50 (PC-3; Homo sapiens) was 24.9 µM.
